The source made the active and inactive calls. How the calls were made is not given here.
Experiments:
Experiment in all cases: CXCR6 receptor antagonists, dose response, cell-based, beta-arrestin, DiscoveRx, APJ panel, uHTS hits (AID 624129)
[1] = biological target: C-X-C chemokine receptor type 6 (Homo sapiens) (UniProt O00574); conditions: CXCR6 beta-arrestin (DiscoveRx) antagonist cell assay
[2] = biological target: Beta-galactosidase (Escherichia coli) (UniProt Q8VNN2); conditions: CXCR6 beta-arrestin (DiscoveRx) antagonist cell assay, b-galactosidase
[3] = biological target: Apelin receptor (Homo sapiens) (UniProt P35414); conditions: CXCR6 beta-arrestin (DiscoveRx) antagonist cell assay, APJ
[4] = biological target: C-C chemokine receptor type 6 (Homo sapiens) (UniProt P51684); conditions: CXCR6 beta-arrestin (DiscoveRx) antagonist cell assay
[5] = CXCR6, dose range 1, mean IC50 across replicates
[6] = dose range 1, mean IC50 across replicates
[7] = CCR6, dose range 1, mean IC50 across replicates
[8] = CXCR6, run 1, dose range 2, at 80 µM (top of the series)

Chain of Beta-galactosidase (Escherichia coli) (Q8VNN2 whole entry, looked up): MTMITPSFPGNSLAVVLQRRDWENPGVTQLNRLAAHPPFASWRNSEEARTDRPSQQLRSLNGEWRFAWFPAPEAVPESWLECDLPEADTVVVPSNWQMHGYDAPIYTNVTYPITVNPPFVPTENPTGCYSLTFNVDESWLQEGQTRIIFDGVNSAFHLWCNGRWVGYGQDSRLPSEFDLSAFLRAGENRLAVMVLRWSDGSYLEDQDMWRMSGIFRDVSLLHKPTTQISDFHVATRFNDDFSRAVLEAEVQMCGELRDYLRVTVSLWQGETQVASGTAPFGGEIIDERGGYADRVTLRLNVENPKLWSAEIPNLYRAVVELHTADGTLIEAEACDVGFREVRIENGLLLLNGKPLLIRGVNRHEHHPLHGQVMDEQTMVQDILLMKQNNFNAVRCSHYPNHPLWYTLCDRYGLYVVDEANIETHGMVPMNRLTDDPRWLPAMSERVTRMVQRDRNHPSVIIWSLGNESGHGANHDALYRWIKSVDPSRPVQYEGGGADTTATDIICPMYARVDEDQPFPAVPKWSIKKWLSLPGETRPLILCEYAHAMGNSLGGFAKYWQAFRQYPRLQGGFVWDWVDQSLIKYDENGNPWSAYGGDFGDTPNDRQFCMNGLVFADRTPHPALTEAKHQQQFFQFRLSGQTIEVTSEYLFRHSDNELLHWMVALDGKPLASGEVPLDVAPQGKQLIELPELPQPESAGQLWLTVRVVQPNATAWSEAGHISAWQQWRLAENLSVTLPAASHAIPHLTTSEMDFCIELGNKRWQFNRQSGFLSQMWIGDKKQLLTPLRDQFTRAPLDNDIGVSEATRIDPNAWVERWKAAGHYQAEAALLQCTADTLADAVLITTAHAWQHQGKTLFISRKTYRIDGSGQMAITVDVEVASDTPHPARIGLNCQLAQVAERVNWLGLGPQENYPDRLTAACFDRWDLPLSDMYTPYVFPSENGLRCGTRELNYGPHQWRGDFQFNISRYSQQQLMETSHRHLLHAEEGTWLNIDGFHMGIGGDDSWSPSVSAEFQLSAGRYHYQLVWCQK
Chain of C-X-C chemokine receptor type 6 (Homo sapiens) (O00574 whole entry, looked up): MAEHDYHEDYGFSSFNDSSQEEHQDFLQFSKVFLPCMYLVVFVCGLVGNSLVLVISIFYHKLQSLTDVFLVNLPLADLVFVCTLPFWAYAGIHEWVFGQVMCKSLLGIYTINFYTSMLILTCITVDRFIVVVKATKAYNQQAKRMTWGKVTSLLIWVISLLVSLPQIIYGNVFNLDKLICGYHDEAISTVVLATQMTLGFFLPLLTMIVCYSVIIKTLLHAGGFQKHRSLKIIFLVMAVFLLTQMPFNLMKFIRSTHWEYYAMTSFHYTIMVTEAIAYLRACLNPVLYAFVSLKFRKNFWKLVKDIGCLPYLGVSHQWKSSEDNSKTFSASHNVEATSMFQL

| SMILES | IC50 ([1]; CXCR6, dose range 1) | IC50 [1, 5] [µM] | IC50 ([1]; CXCR6, run 1, dose range 2) [µM] | IC50 ([1]; CXCR6, run 2, dose range 1) [µM] | IC50 ([1]; CXCR6, run 2, dose range 2) [µM] | IC50 ([2]; dose range 1) | IC50 [2, 6] [µM] | IC50 ([3]; dose range 1) [µM] | IC50 [3, 6] [µM] | IC50 ([3]; run 2, dose range 1) [µM] | IC50 ([3]; run 3, dose range 1) [µM] | IC50 ([4]; CCR6, dose range 1) [µM] | IC50 [4, 7] [µM] | IC50 ([4]; CCR6, run 2, dose range 1) [µM] | inhibition [1, 8] [%] | inhibition ([1]; CXCR6, run 1, dose range 2, at 40 µM (top of the series)) [%] |
| --- | --- | --- | --- | --- | --- | --- | --- | --- | --- | --- | --- | --- | --- | --- | --- | --- |
| Oc1c(Br)cc(Br)cc1C=NCc1ccccc1 | inactive | 18.1 | 10.2 | 22.9 | 10.6 | 28.5 µM | 28.5 | 17 | 17.9 | 21.6 | 15.1 | 16.8 | 18.6 | 20.5 |  |  |
| C/C(=N/NC(=O)c1ccc(C(C)(C)C)cc1)c1ccccn1 | 1.32 µM | 1.18 | 0.9 | 1.79 | 0.719 | > 80 µM (inactive) | > 80 | 1.12 | 1.41 | 1.66 | 1.45 | 1.26 | 1.53 | 1.8 |  |  |
| COc1ccc(CCN2C(=O)C=CC2=O)cc1OC | 9.39 µM | 8.38 |  | 7.37 |  | > 80 µM (inactive) | > 80 | 9.45 | 21.1 | 8.84 | 45.1 | 4.86 | 6.32 | 7.78 | 122 |  |
| COc1ccccc1C(=O)NNC(=S)NC(=O)c1cccs1 | inactive | 15 | 9.07 | 22.8 | 10.6 | > 80 µM (inactive) | > 80 | 9.86 | 31 | 13.8 | 69.4 | 12.2 | 12.1 | 11.9 |  |  |
| CCN1/C(=C\C=C2\C(=O)N(c3ccccc3)C(=S)N2C)Sc2ccccc21 | 7.42 µM | 6.24 |  | 5.05 |  | > 80 µM (inactive) | > 80 | 8.97 | 11.3 | 13.9 | 11 | 4.79 | 5.43 | 6.07 | 91.3 |  |
| COc1ccc(OC)c2sc(N(CCCN(C)C)C(=O)CCS(=O)(=O)c3ccccc3)nc12 | inactive | 12.5 |  | 10.6 |  | > 80 µM (inactive) | > 80 | 21.7 | 19.6 | 18.2 | 19 | 10.4 | 11.3 | 12.3 | 114 |  |
| CCOc1ccc2nc(NC(=O)c3ccccn3)sc2c1 | inactive | 13.5 |  | 12.7 |  | > 80 µM (inactive) | > 80 | 11.7 | 19.5 | 35 | 11.8 | 7.32 | 8.78 | 10.2 | 92.1 |  |
| C=CS(=O)(=O)c1c2cc(OC)ccc2nc2ccc(OC)cc12 | inactive | 12.5 |  | 10.1 |  | > 80 µM (inactive) | > 80 | 17 | 18.7 | 18.8 | 20.2 | 10.8 | 11.7 | 12.5 | 117 |  |
| COc1ccc(C(=O)/C=C/C(=O)N(CC(=O)NC2CCCCC2)CC2CCCO2)c(O)c1 (centres undefined) | > 80 µM (inactive) | > 80 |  | > 80 |  | > 80 µM (inactive) | > 80 |  | > 80 | > 80 | > 80 |  | > 80 | > 80 | -34.5 |  |
| COC(CNC(=O)c1cc(C(=O)c2c(-c3c(Cl)cccc3Cl)noc2C)c[nH]1)OC | inactive | 15.7 |  | 18.6 |  | > 80 µM (inactive) | > 80 | 5.2 | 9.29 | 10.7 | 12 | 16.9 | 24.1 | 31.4 | 80.7 |  |
| COc1ccc(Nc2ccc([N+](=O)[O-])c3nonc23)c(OC)c1 | > 80 µM (inactive) | > 80 |  | > 80 |  | > 80 µM (inactive) | > 80 |  | > 80 | > 80 | > 80 |  | > 80 | > 80 | 4.14 |  |
| COC(=O)c1ccc2c(c1)C(C)(C)C(/C=C/c1ccccc1O)=[N+]2C | inactive | 11.7 | 8.94 | 13.5 | 9.88 | 24.2 µM | 24.2 | 16.2 | 15.9 | 14.1 | 17.3 | 10.3 | 11.3 | 12.3 |  |  |
| O=C(NNC(=O)C12CC3CC(CC(C3)C1)C2)c1ccccn1 | 18.7 µM | 10.9 | 5.57 | 8.52 | 10.9 | > 80 µM (inactive) | > 80 | 10.3 | 9.16 | 8.53 | 8.62 | 8.92 | 8.58 | 8.23 |  |  |
| CNc1ccc2oc(C[C@H]3O[C@@]4(CC[C@H]3C)O[C@H]([C@H](C)C(=O)c3ccc[nH]3)[C@H](C)C[C@H]4C)nc2c1C(=O)O | 5.85 µM | 8.6 | 6.42 | 7.09 | 15 | > 80 µM (inactive) | > 80 | 10.9 | 11.7 | 12.4 | > 80 | 6.14 | 6.15 | 6.16 |  |  |
| COc1ccc(C[C@@H]2OC3(C=CC(=O)C=C3)O[C@H]2Cc2ccc(OC)cc2)cc1 | 5.57 µM | 5.59 | 5.41 | 4.23 | 7.14 | > 80 µM (inactive) | > 80 | 8.04 | 7.02 | 6.89 | 6.14 | 3.92 | 3.98 | 4.05 |  |  |
| CN(O)C(=S)c1ccccc1 | 1.67 µM | 1.58 |  | 1.48 |  | > 80 µM (inactive) | > 80 | 2.41 | 4.68 | 6.23 | 5.39 | 0.724 | 1.31 | 1.89 |  | 90.8 |
| CNC(=O)c1nnsc1S(=O)(=O)c1ccc(Cl)cc1 | inactive | 12.1 |  | 10.7 |  | > 80 µM (inactive) | > 80 | 14.3 | 15.7 | 16.1 | 16.5 | 10.5 | 12 | 13.5 | 116 |  |
| CC(=O)OCCNc1cc(SCc2ccco2)c2nonc2c1[N+](=O)[O-] | inactive | 15.4 |  | 16.6 |  | > 80 µM (inactive) | > 80 | 21.1 | 18.8 | 17.8 | 17.5 | 13.8 | 14 | 14.2 | 74.8 |  |
| CC(=O)OCCCNc1cc(Sc2ccc(Cl)cc2)c2nonc2c1[N+](=O)[O-] | 3.22 µM | 3.05 |  | 2.88 |  | 39.8 µM | 39.8 | 5.08 | 4.65 | 4.27 | 4.6 | 1.97 | 2.12 | 2.27 | 145 |  |
| C=CS(=O)(=O)c1ccc(Oc2ccc(S(=O)(=O)C=C)cc2)cc1 | 10.2 µM | 10.8 | 8.79 | 12.2 | 11.9 | > 80 µM (inactive) | > 80 | 13.1 | 12.2 | 9.91 | 13.7 | 7.57 | 7.23 | 6.88 |  |  |
| CN(c1ccccc1)S(=O)(=O)c1ccc(NC(=O)c2nc(S(C)(=O)=O)ncc2Cl)cc1 | 6.05 µM | 7.41 | 8.06 | 6.38 | 9.16 | > 80 µM (inactive) | > 80 | 7.36 | 7.72 | 7.88 | 7.91 | 6.25 | 5.69 | 5.13 |  |  |
| CC(=O)OCCCNc1cc(Sc2ccc(C)cc2)c2nonc2c1[N+](=O)[O-] | > 80 µM (inactive) | > 80 |  | > 80 |  | > 80 µM (inactive) | > 80 |  | > 80 | > 80 | > 80 |  | > 80 | > 80 | -24.2 |  |

Reference: PubChem BioAssay AID624129 (Sanford-Burnham Center for Chemical Genomics, 2012)
